Measurements reported in patent US6110907A, “Synthesis of platinum complexes and uses thereof” (Dalian Institute of Chemical Physics, Chinese Academy of …, priority 1998, dated 2000).
Like-named read-outs stand apart in the source and are kept apart here.

What was measured:
[1] = tested on: CNE-2; experiment: In vitro antitumor activity, MTT assay, CNE-2; type: cell-based, human; conditions: CNE-2, 48 hours
Description: (§1) Drugs: Drugs to be tested were dissolved in complete medium at twice the highest concentration to be used, followed by filter (0.22 μm) sterilization. A series of log dilutions were made of each drug solution using complete medium and stored at r.t. until use.
(§2) Cells: L1210, H-522 (human lung), HT-29 (human colon), Hela, CC3 (human cervix) were obtained from the American Type Culture Collection (ATCC). CNE-1 and CNE-2 (human nasopharyngeal) were obtained from The Hong Kong Cancer Institute, The Chinese University of Hong Kong.
(§3) In vitro drug exposure: Trypsinised cells were adjusted to a concentration of 3×10^4 cells/ml in complete medium and for each drug to be tested, 0.1 ml of the cell suspension was added to each of 48 wells of a 96-well microculture plate. The plate was then incubated at standard conditions for 24 hours in order to allow the cells to attach to the bottom of the well. To each well of the control cultures, 0.1 ml of complete medium was added. […]
(§4) MTT assay: The MTT (tetrazolium) assay was used to determine the growth-inhibitory effects of different drugs. […] The amount of reduced MTT was determined by spectrophotometric means (540 nm).
(§5) Data analysis: The mean OD for all 48 control wells was determined. For each concentration of each drug, the mean OD of the 6 wells was determined and the "Percent of Control" values were determined and plotted. […]

[2] = tested on: Hela; experiment: In vitro antitumor activity, MTT assay, Hela; type: cell-based, human; conditions: 48 hours
Description: as §1, §2, §3, §4, §5

[3] = tested on: H522; experiment: In vitro antitumor activity, MTT assay, H522; type: cell-based, human; conditions: H522, 48 hours
Description: as §1, §2, §3, §4, §5

[4] = tested on: L1210; experiment: In vitro antitumor activity, MTT assay, L1210; type: cell-based, mouse; conditions: L1210, 48 hours
Description: as §1, §2, §3, §4, §5

[5] = tested on: CC3; experiment: In vitro antitumor activity, MTT assay, CC3; type: cell-based, human; conditions: CC3, 48 hours
Description: as §1, §2, §3, §4, §5

[6] = tested on: HT29; experiment: In vitro antitumor activity, MTT assay, HT-29; type: cell-based, human; conditions: HT29, 48 hours
Description: as §1, §2, §3, §4, §5

[7] = tested on: CNE-1; experiment: In vitro antitumor activity, MTT assay, CNE-1; type: cell-based, human; conditions: CNE-1, 48 hours
Description: as §1, §2, §3, §4, §5

[8] = tested on: ICR mice; experiment: In vivo toxicity, LD50 (second series); conditions: male, intraperitoneal
Description: Animals: ICR mice, male, 30 g, 10 animals per test/control group.
Dose: Test/control drug were dissolved in normal saline. Four doses, each increasing by 10-20% were injected intraperitoneally into mice. 10 mice were used for each dose point.

[9] = tested on: liver; experiment: 5-Day Parenteral Acute Toxicity Trial, liver histopathology; type: in vivo, ICR mice; conditions: 1/12 LD10/day for 5 days, i.p., per animal
Description: (§6) Conditions: Temperature: 22° C.±3° C.; Relative humidity: 30-70 T; Light: 12:12. Animals were housed in twos or threes depending on group numbers.
(§7) Histopathology of liver and kidney were examined for each animal.

[10] = cited from earlier work
[11] = tested on: kidney; experiment: 5-Day Parenteral Acute Toxicity Trial, kidney histopathology; type: in vivo, ICR mice; conditions: 1/12 LD10/day for 5 days, i.p., per animal
Description: as §6, §7

[12] = tested on: ICR mice; experiment: Toxicity testing, LD50 (Example 14); type: in vivo; conditions: in 0.9% NaCl, observed for 6 days
Description: The toxicity tests used ICR mice (30-40 g), each group containing 12-13 mice. […] The test and control compounds were dissolved in 0.9% NaCl to an appropriate concentration.

[13] = background statement; cited from earlier work

N.N.[Cl][Pt][Cl] [Cisplatin, cisplatin]
IC50 [1]: 6.04 µM
IC50 [2]: 8.56 µM
IC50 [3]: 12.1 µM
IC50 [4]: 1.63 µM
IC50 [5]: 6.25 µM
IC50 [6]: 38.3 µM
IC50 [7]: 6.36 µM

N.N.O=C([O-])C1(C(=O)[O-])CCC1.[Pt+2] [Carboplatin, carboplatin]
IC50 [1]: 126 µM
LD50 [8]: 203.20 mg/kg
IC50 [2]: 244 µM
IC50 [3]: 287 µM
LIVER Normal ([9]; female): √
LIVER Normal ([9]; male): √
side effects ([10]; in vivo): strongly irritates the gastrointestinal tract
IC50 [4]: 48.8 µM
Solubility in water (pH 6): 10000 µg/mL
Solubility (water): ~10000 µg/mL
IC50 [5]: 205 µM
IC50 [6]: 734 µM
IC50 [7]: 174 µM
KIDNEY Normal ([11]; female): √
KIDNEY Normal ([11]; male): √
LD50 [12]: 190 mg/kg

O=C(O)C1C2CCC(O2)C1C(=O)O (centres unmarked) [corresponding dicarboxylic acid]
LD50 [13]: 14 mg/kg

C[C@@]12C(=O)OC(=O)[C@]1(C)[C@H]1CC[C@@H]2O1 [Cantharidin, cantharidin]
LIVER Normal ([9]; female): √
LIVER Normal ([9]; male): √
side effects ([10]; background statement): nausea and vomiting, dysphagia, hematemesis, gross hematuria and dysuria
side effects ([10]; background statement, listed as cantharidin): severe side-effects such as nausea, vomiting and diarrhoea
LD50 [13]: 1 mg/kg
KIDNEY Normal ([11]; female): √
KIDNEY Normal ([11]; male): √

O=C1OC(=O)C2C3CCC(O3)C12 (centres unmarked) [demethyl cantharidin]
LD50 [13]: 4 mg/kg
